Results taken from ChEMBL document CHEMBL5036359, “Repositioning Food and Drug Administration-Approved Drugs for Inhibiting Biliverdin IXβ Reductase B as a Novel Thrombocytopenia Therapeutic Target” (J Med Chem, 2022).

Legend:
[1] = target: T1, Flavin reductase (NADPH) (Homo sapiens) (UniProt P30043); assay: Binding affinity to human N-terminal His6-tagged and thrombin cleavage fused BLVRB expressed in Escherichia coli BL21 (DE3) assessed as change in enthalpy by isothermal titration calorimetry
T1 sequence (whole entry): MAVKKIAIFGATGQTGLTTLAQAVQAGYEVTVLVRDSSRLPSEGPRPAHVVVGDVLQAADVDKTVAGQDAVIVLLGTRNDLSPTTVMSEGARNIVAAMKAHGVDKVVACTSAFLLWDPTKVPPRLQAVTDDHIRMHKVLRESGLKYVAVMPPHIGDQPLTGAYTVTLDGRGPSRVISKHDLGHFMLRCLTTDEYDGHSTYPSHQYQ

[2] = target: T1, Flavin reductase (NADPH) (Homo sapiens); assay: Binding affinity to human N-terminal His6-tagged and thrombin cleavage fused BLVRB expressed in Escherichia coli BL21 (DE3) assessed as change in entropy by isothermal titration calorimetry
[3] = target: T1, Flavin reductase (NADPH) (Homo sapiens); assay: Binding affinity to human N-terminal His6-tagged and thrombin cleavage fused BLVRB expressed in Escherichia coli BL21 (DE3) assessed as change in gibbs free energy by isothermal titration calorimetry
[4] = target: T2, Flavin reductase (NADPH) (Homo sapiens, UniProt P30043); assay: Binding affinity to human N-terminal His6-tagged and thrombin cleavage fused BLVRB expressed in Escherichia coli BL21 (DE3) assessed as dissociation constant by isothermal titration calorimetry
T2 sequence (P30043 whole entry): T1 sequence (whole entry)

deltaH [1] [kcal/mol] | TdeltaS [2] [kcal/mol] | deltaG [3] [kcal/mol] | Kd [4] [nM] | SMILES
-7.32 | 0.55 | -7.87 | 1710 | O=C(O)c1ccc(-n2nc(-c3ccccc3O)nc2-c2ccccc2O)cc1 [DEFERASIROX]
-4.49 | 3.5 | -7.99 | – | CC1(C)CCC(C)(C)c2cc(NC(=O)c3ccc(C(=O)O)cc3)ccc21
-5.75 | 2.14 | -7.9 | 1630 | Cc1nc(-c2ccc(OCC(C)C)c(C#N)c2)sc1C(=O)O [FEBUXOSTAT]
-9.43 | -0.76 | -8.67 | – | O=C(O)c1cc(/N=N/c2ccc(S(=O)(=O)Nc3ccccn3)cc2)ccc1O
-11 | -1.83 | -9.13 | 200 | O=C(O)c1cccc(-c2noc(-c3ccccc3F)n2)c1
-6.38 | 2.91 | -9.28 | 160 | O=C1OC2(c3ccccc31)c1cc(I)c(O)c(I)c1Oc1c2cc(I)c(O)c1I [ERYTHROSINE]

SMILES | deltaH [1] [kcal/mol] | TdeltaS [2] [kcal/mol] | deltaG [3] [kcal/mol] | Kd [4] [nM]
O=C(O)c1c(Cl)c(Cl)c(Cl)c(Cl)c1-c1c2cc(Br)c(=O)c(Br)c-2oc2c(Br)c(O)c(Br)cc12 | -3.88 | 4.12 | -8 | 1360
